The source of these data is patent publication US11427558B1, “Indazoles and azaindazoles as LRRK2 inhibitors” (ESCAPE Bio, Inc., priority 2019, dated 2022).

Assay [1] concerns the target Recombinant wild type LRRK2 protein (Homo sapiens (Human), UniProt Q5S007). Description: LRRK2 kinase activity, LanthaScreen TR-FRET assay (wild type). It counts as biochemical. Particulars: LRRKtide 400 nM, 25 μM ATP, 60 min; read-out: LRRK2 WT IC50. The method in brief: (§1)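 Recombinant human wild-type or G2019S LRRK2 phosphorylated fluorescein-labelled LRRKtide (ERM-based) with ATP and serially diluted compound for 60 min at room temperature.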
Background: TR-FRET usually uses a lanthanide donor and a delayed reading to cut background.

Assay [2] deals with Recombinant G2019S-LRRK2 protein (Homo sapiens (Human), UniProt Q5S007, G2019S). Description: LRRK2 kinase activity, LanthaScreen TR-FRET assay (G2019S). It is filed as biochemical. To be noted: LRRKtide 400 nM, 25 μM ATP, 60 min. The method in brief: as §1

Some results are limits rather than exact numbers.

Chain of Recombinant wild type LRRK2 protein (Q5S007 whole entry): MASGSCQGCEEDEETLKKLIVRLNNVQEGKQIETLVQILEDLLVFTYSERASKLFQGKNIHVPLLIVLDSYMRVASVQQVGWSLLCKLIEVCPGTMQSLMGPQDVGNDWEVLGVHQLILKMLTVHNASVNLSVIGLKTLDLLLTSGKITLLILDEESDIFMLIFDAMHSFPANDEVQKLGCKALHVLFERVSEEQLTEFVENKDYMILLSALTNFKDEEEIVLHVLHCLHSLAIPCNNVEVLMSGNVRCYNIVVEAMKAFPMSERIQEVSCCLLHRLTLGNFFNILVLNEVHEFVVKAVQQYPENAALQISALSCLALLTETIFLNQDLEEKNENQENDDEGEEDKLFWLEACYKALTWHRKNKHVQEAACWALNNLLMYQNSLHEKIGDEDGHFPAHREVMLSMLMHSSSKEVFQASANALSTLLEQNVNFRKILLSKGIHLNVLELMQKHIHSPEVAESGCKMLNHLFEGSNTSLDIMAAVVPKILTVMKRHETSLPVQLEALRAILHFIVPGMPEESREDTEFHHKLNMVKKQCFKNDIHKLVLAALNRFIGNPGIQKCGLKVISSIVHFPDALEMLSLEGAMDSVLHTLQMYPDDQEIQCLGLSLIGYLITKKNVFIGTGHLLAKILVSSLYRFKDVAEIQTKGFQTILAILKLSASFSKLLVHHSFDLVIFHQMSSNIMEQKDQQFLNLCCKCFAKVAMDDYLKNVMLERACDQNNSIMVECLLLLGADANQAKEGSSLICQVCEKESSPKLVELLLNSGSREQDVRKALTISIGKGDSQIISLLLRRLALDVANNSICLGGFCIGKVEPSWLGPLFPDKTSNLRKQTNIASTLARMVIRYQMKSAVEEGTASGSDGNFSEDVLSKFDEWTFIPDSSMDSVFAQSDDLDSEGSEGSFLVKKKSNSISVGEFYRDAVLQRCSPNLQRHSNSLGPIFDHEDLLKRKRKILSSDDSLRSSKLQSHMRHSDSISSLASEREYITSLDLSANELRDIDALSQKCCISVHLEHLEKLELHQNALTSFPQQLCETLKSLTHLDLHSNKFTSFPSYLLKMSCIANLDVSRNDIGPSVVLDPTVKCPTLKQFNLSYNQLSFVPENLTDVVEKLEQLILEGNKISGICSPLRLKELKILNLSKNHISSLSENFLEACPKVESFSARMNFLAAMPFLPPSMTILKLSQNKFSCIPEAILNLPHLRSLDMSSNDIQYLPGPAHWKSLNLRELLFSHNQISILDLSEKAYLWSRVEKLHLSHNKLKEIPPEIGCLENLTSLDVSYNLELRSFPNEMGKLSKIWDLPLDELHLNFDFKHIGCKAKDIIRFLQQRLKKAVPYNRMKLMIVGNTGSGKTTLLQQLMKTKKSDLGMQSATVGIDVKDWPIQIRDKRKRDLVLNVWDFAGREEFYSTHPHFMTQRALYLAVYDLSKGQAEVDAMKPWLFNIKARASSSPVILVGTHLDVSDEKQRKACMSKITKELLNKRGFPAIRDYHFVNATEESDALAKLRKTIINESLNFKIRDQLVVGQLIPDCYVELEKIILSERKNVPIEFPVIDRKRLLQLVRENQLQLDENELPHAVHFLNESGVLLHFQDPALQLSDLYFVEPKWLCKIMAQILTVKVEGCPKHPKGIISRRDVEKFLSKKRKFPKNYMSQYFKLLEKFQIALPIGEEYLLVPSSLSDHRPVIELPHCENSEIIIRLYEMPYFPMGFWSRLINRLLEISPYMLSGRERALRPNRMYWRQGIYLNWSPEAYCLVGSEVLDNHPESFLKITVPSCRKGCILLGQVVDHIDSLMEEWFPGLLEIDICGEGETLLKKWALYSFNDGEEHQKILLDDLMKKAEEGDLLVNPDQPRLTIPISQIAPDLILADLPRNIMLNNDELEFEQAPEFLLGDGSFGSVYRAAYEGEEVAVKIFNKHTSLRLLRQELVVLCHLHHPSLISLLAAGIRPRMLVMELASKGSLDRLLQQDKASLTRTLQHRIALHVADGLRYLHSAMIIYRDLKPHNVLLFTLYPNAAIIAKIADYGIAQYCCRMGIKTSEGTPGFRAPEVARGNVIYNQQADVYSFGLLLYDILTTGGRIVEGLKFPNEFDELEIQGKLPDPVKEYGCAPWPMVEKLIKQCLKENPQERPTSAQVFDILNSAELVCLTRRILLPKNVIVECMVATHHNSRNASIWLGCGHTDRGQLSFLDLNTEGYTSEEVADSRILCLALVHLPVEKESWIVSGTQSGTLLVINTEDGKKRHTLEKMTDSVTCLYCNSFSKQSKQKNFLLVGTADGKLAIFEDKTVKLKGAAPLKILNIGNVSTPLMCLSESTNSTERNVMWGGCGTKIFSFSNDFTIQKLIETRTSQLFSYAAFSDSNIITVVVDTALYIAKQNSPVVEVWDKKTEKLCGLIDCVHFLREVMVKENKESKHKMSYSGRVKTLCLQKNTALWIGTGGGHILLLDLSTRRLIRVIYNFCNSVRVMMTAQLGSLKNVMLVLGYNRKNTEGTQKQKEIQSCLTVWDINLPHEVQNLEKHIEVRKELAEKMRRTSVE
Chain of Recombinant G2019S-LRRK2 protein (Q5S007 whole entry G2019S): as the sequence (Q5S007 whole entry) above, with G2019S counted along it

By IC50 is commonly meant the point on the concentration scale where inhibition reaches its midpoint. Turning to `N#Cc1cnc(C(=O)Nc2ccc3[nH]nc(-c4cnco4)c3c2)c(Cl)c1` [Example 318, 3-Chloro-5-cyano-N-(3-(oxazol-5-yl)-1H-indazol-5-yl)picolinamide], the IC50 in assay [1] and in assay [2] was below 100 nM each time.

Consider `Cc1ccc(-c2n[nH]c3ccc(NC(=O)c4ncc(C#N)cc4C)cc23)cc1F` [Example 63, 5-Cyano-N-(3-(3-fluoro-4-methylphenyl)-1H-indazol-5-yl)-3-methylpicolinamide], for which the IC50 was 100 to 1000 nM in assay [1] and below 100 nM in assay [2].

Take `N#Cc1ccc(C(=O)Nc2ccc3[nH]nc(-c4ccoc4)c3c2)cc1` [Example 11, 4-Cyano-N-(3-(furan-3-yl)-1H-indazol-5-yl)benzamide]: the values for the IC50 in assay [1] and in assay [2] were 100 to 1000 nM and below 100 nM, respectively.

`Cc1nc(C(=O)Nc2ccc3[nH]nc(C4CC4)c3c2)c(C)c(C)c1C#N` [Example 305, 5-Cyano-N-(3-cyclopropyl-1H-indazol-5-yl)-3,4,6-trimethylpicolinamide]: the figures for the 50% inhibitory concentration (IC50) in assay [1] and in assay [2] were 100 to 1000 nM and below 100 nM, respectively.

In the case of `Cc1ccc(-c2n[nH]c3ccc(NC(=O)c4ncc(C#N)cc4C)cc23)cc1` [Example 56, 5-Cyano-3-methyl-N-(3-(p-tolyl)-1H-indazol-5-yl)picolinamide], the figures for the IC50 in assay [1] and in assay [2] were 100 to 1000 nM and below 100 nM, respectively.

Take `N#Cc1cccc(C(=O)Nc2ccc3[nH]nc(-c4cnn(C(F)F)c4)c3c2)c1F` [Example 167, 3-Cyano-N-(3-(1-(difluoromethyl)-1H-pyrazol-4-yl)-1H-indazol-5-yl)-2-fluorobenzamide]: the IC50 in assay [1] and in assay [2] was below 100 nM throughout.

In the case of `C=C(C)c1c(C#N)cccc1C(=O)Nc1ccc2[nH]nc(-c3cnco3)c2c1` [Example 214, 3-Cyano-N-(3-(oxazol-5-yl)-1H-indazol-5-yl)-2-(prop-1-en-2-yl)benzamide], the IC50 in assay [1] and in assay [2] was below 100 nM each time.

For the compound `Cc1ncc(C#N)nc1C(=O)Nc1ccc2[nH]nc(-c3ccoc3)c2c1` [Example 147, 6-Cyano-N-(3-(furan-3-yl)-1H-indazol-5-yl)-3-methylpyrazine-2-carboxamide], the IC50 in assay [1] and in assay [2] was below 100 nM throughout.

Regarding `Cn1cc(C#N)nc1C(=O)Nc1ccc2[nH]nc(-c3ccoc3)c2c1` [Example 124, 4-Cyano-N-(3-(furan-3-yl)-1H-indazol-5-yl)-1-methyl-1H-imidazole-2-carboxamide], the IC50 in assay [1] and in assay [2] was below 100 nM each time.

Regarding `Cc1cc(C#N)cnc1C(=O)Nc1ccc2[nH]nc(-c3cncs3)c2c1` [Example 110, 5-Cyano-3-methyl-N-(3-(thiazol-5-yl)-1H-indazol-5-yl)picolinamide], the IC50 in assay [1] is 100 to 1000 nM; in assay [2], below 100 nM.

For the compound `Cc1ccccc1-c1n[nH]c2ccc(NC(=O)c3ncc(C#N)cc3C)cc12` [Example 98, 5-Cyano-3-methyl-N-(3-(o-tolyl)-1H-indazol-5-yl)picolinamide], the 50% inhibitory concentration (IC50) in assay [1] is above 10000 nM; in assay [2], 1000 to 10000 nM.

With `Cc1c(C(=O)Nc2ccc3[nH]nc(C)c3c2)nc(Br)c(C#N)c1C` [Example 302, 6-Bromo-5-cyano-3,4-dimethyl-N-(3-methyl-1H-indazol-5-yl)picolinamide], the IC50 in assay [1] and in assay [2] was below 100 nM throughout.

Regarding `C=C(C)c1c(C#N)cccc1C(=O)Nc1ccc2[nH]nc(C)c2c1` [Example 274, 3-Cyano-N-(3-methyl-1H-indazol-5-yl)-2-(prop-1-en-2-yl)benzamide], the results for the IC50 in assay [1] and in assay [2] were 1000 to 10000 nM and below 100 nM, respectively.

With `Cc1cc(C#N)cnc1C(=O)Nc1ccc2[nH]nc(-c3ccsc3)c2c1` [Example 73, 5-Cyano-3-methyl-N-(3-(thiophen-3-yl)-1H-indazol-5-yl)picolinamide], the IC50 in assay [1] is 100 to 1000 nM; in assay [2], below 100 nM.

For the compound `Cc1cc(C#N)cnc1C(=O)Nc1ccc2[nH]nc(-c3ccc(N4CCOCC4)cc3)c2c1` [Example 70, 5-Cyano-3-methyl-N-(3-(4-morpholinophenyl)-1H-indazol-5-yl)picolinamide], the IC50 was 100 to 1000 nM in assay [1] and below 100 nM in assay [2].

For `Cc1c(C(=O)Nc2ccc3[nH]nc(C)c3c2)ncc(C#N)c1Cl` [Example 306, 4-Chloro-5-cyano-3-methyl-N-(3-methyl-1H-indazol-5-yl)picolinamide], the IC50 was 100 to 1000 nM in assay [1] and below 100 nM in assay [2].

Consider `Cn1cc(C(=O)Nc2ccc3[nH]nc(-c4cnco4)c3c2)cc(C#N)c1=O` [Example 224, 5-cyano-1-methyl-N-(3-(oxazol-5-yl)-1H-indazol-5-yl)-6-oxo-1,6-dihydropyridine-3-carboxamide], for which the IC50 in assay [1] and in assay [2] was below 100 nM throughout.

As to `Cc1nc(C#N)cnc1C(=O)Nc1ccc2[nH]nc(-c3ccoc3)c2c1` [Example 145, 5-Cyano-N-(3-(furan-3-yl)-1H-indazol-5-yl)-3-methylpyrazine-2-carboxamide], the IC50 in assay [1] and in assay [2] was below 100 nM each time.

With `N#Cc1cnc(C(=O)Nc2ccc3[nH]nc(-c4ccoc4)c3c2)c(F)c1` [Example 1, 5-Cyano-3-fluoro-N-(3-(furan-3-yl)-1H-indazol-5-yl)picolinamide], the IC50 in assay [1] and in assay [2] was below 100 nM each time.

Turning to `COc1n[nH]c2ccc(NC(=O)c3nc(Cl)c(C#N)c(C)c3C)cc12` [Example 308, 6-Chloro-5-cyano-N-(3-methoxy-1H-indazol-5-yl)-3,4-dimethylpicolinamide], the IC50 in assay [1] and in assay [2] was below 100 nM each time.

For `COc1ccc(-c2n[nH]c3ccc(NC(=O)c4ncc(C#N)cc4C)cc23)cn1` [Example 52, 5-Cyano-N-(3-(6-methoxypyridin-3-yl)-1H-indazol-5-yl)-3-methylpicolinamide], the values for the IC50 in assay [1] and in assay [2] were 100 to 1000 nM and below 100 nM, respectively.

For the compound `Cc1cc(C#N)cnc1C(=O)Nc1ccc2[nH]nc(I)c2c1` [Example 87, 5-cyano-N-(3-iodo-1H-indazol-5-yl)-3-methylpicolinamide], the results for the concentration for half-maximal inhibition (IC50) in assay [1] and in assay [2] were 100 to 1000 nM and below 100 nM, respectively.

Regarding `Cc1c(C#N)cnc(C(=O)Nc2cc(F)c3[nH]ncc3c2)c1C` [Example 314, 5-Cyano-N-(7-fluoro-1H-indazol-5-yl)-3,4-dimethylpicolinamide], the IC50 lay in the range of 1000 to 10000 nM in assay [1] and 100 to 1000 nM in assay [2].

`Cc1cc(C#N)cnc1C(=O)Nc1ccc2[nH]nc(-c3cccc(S(C)(=O)=O)c3)c2c1` [Example 34, 5-Cyano-3-methyl-N-(3-(3-(methylsulfonyl)phenyl)-1H-indazol-5-yl)picolinamide]: the concentration for half-maximal inhibition (IC50) in assay [1] and in assay [2] was below 100 nM throughout.

In the case of `Cc1cc(C#N)cnc1C(=O)Nc1ncc2[nH]nc(-c3ccoc3)c2n1` [Example 161, 5-Cyano-N-(3-(furan-3-yl)-1H-pyrazolo[4,3-d]pyrimidin-5-yl)-3-methylpicolinamide], the IC50 in assay [1] is 1000 to 10000 nM; in assay [2], 100 to 1000 nM.

In the case of `N#Cc1cccc(C(=O)Nc2ccc3[nH]nc(-c4cnco4)c3c2)c1OC(F)(F)F` [Example 212, 3-Cyano-N-(3-(oxazol-5-yl)-1H-indazol-5-yl)-2-(trifluoromethoxy)benzamide], the IC50 in assay [1] and in assay [2] was below 100 nM throughout.

For the compound `CCc1c(C#N)ccnc1C(=O)Nc1ccc2[nH]nc(-c3ccoc3)c2c1` [Example 149, 4-Cyano-3-ethyl-N-(3-(furan-3-yl)-1H-indazol-5-yl)picolinamide], the IC50 in assay [1] was 100 to 1000 nM; in assay [2], below 100 nM.

As for `Cc1c(C#N)cnc(C(=O)Nc2cc3c(-c4cnco4)n[nH]c3cn2)c1C` [Example 238, 5-Cyano-3,4-dimethyl-N-(3-(oxazol-5-yl)-1H-pyrazolo[3,4-c]pyridin-5-yl)picolinamide], the IC50 in assay [1] is 100 to 1000 nM; in assay [2] it was below 100 nM.

With `COCc1n[nH]c2ccc(NC(=O)c3ncc(C#N)c(C)c3C)cc12` [Example 264, 5-Cyano-N-(3-(methoxymethyl)-1H-indazol-5-yl)-3,4-dimethylpicolinamide], the IC50 in assay [1] lay within 1000 to 10000 nM; in assay [2], 100 to 1000 nM.

In the case of `N#Cc1ccc(C(=O)Nc2ccc3[nH]nc(-c4ccoc4)c3c2)c(F)c1` [Example 3, 4-Cyano-2-fluoro-N-(3-(furan-3-yl)-1H-indazol-5-yl)benzamide], the IC50 in assay [1] and in assay [2] was below 100 nM each time.

Consider `Cc1c(C#N)cnc(C(=O)Nc2ccc3[nH]nc(C4CC4(C)C)c3c2)c1C` (stereo not shown) [Example 257, 5-Cyano-N-(3-(2,2-dimethylcyclopropyl)-1H-indazol-5-yl)-3,4-dimethylpicolinamide], for which the IC50 in assay [1] and in assay [2] was 1000 to 10000 nM each time.

For the compound `Cc1nc(C(=O)Nc2ccc3[nH]nc(-c4cnco4)c3c2)c(C)c(C)c1C#N` [Example 202, 5-Cyano-3,4,6-trimethyl-N-(3-(oxazol-5-yl)-1H-indazol-5-yl)picolinamide], the IC50 in assay [1] and in assay [2] was below 100 nM each time.

Take `Cc1cc(C#N)cnc1C(=O)Nc1ccc2[nH]nc(-c3cnn(C)c3C)c2c1` [Example 123, 5-Cyano-N-(3-(1,5-dimethyl-1H-pyrazol-4-yl)-1H-indazol-5-yl)-3-methylpicolinamide]: the IC50 in assay [1] is 100 to 1000 nM; in assay [2], below 100 nM.

`Cc1c(C#N)cnc(C(=O)Nc2ccc3[nH]nc(-c4cnn(C5CCN(C)CC5)c4)c3c2)c1C` [Example 215, 5-Cyano-3,4-dimethyl-N-(3-(1-(1-methylpiperidin-4-yl)-1H-pyrazol-4-yl)-1H-indazol-5-yl)picolinamide]: the IC50 in assay [1] and in assay [2] was below 100 nM in each case.

Turning to `N#Cc1cccc(C(=O)Nc2ccc3[nH]nc(-c4ccoc4)c3c2)c1F` [Example 77, 3-Cyano-2-fluoro-N-(3-(furan-3-yl)-1H-indazol-5-yl)benzamide], the IC50 in assay [1] and in assay [2] was below 100 nM in each case.
